Measured values published in US20130065226A1, “METHOD OF DETERMINING DOSE AND ADMINISTRATION OF STATIN” (TOHOKU UNIVERSITY, priority 2011, published 2013).
Where a SMILES comes first, the peptide text is derived from it. The star is where a group is joined. Cbz = O=C(OCc1ccccc1)*

What was measured:
SmgGDS = SmgGDS expression in HUVEC after 24 h drug treatment (western blot); type: cell-based, human; conditions: for inhibition of the statin-induced increase in SmgGDS expression level: FPP or GGPP 10 μM co-treated with atorvastatin or pitavastatin, 24 h
Racl = experiment: Protein expression in HUVEC subcellular fractions: Racl (with or without proteasome inhibitor MG-132); conditions: HUVEC co-treated with atorvastatin and MG-132

Compound | inhibition of the statin-induced increase in SmgGDS expression level (SmgGDS) | also measured
CC(C)=CCC/C(C)=C/CC/C(C)=C/COP(=O)(O)OP(=O)(O)O [FPP, farnesyl pyrophosphate] | neither FPP nor GGPP inhibited the increase in SmgGDS expression level by statins | –
CC(C)=CCC/C(C)=C/CC/C(C)=C/CC/C(C)=C/COP(=O)(O)OP(=O)(O)O [GGPP, geranylgeranyl pyrophosphate] | neither FPP nor GGPP inhibited the increase in SmgGDS expression level by statins | –
O=c1[nH]ccc2c(S(=O)(=O)N3CCCNCC3)cccc12 [HF, hydroxyfasudil] | – | SmgGDS expression level in HUVEC (SmgGDS; 24 h treatment, atorvastatin 10 and 30 μM, pitavastatin 1 and 10 μM): did not increase the SmgGDS expression level
CC(C)C[C@@H](C=O)NC(=O)[C@H](CC(C)C)NC(=O)[C@H](CC(C)C)NC(=O)OCc1ccccc1 [MG-132] (Cbz-Leu-Leu-Leu-aldehyde) | – | effect of MG-132 on statin-triggered decrease of Racl expression in the nucleus (Racl): inhibited the decreased Racl expression level triggered by atorvastatin in the nucleus
